Data published in the NIST ThermoML archive (doi:10.1016/j.jct.2014.04.016).
Values joined by “and” are separate entries in the source; they are usually repeats but may differ in a detail not shown here. Identical values can stand only once.

Assay: xn = mol fraction of the nth substance listed
Details: 100 kPa; for electrical conductivity: Alternating current cell with electrodes; for viscosity: Concentric cylinders viscometry; for mass density: Vibrating tube method

CCCCCCCCOS(=O)(=O)[O-].CCn1cc[n+](C)c1 [1-ethyl-3-methylimidazolium octyl sulfate] + O
Details	electrical conductivity	mass density	viscosity
278.1 K, Glass, x1 = 0.1197	–	–	591.8 mPa·s
278.1 K, Glass, x1 = 0.3555	0.188 S/m	–	2561 mPa·s and 2061 mPa·s
278.1 K, Liquid, x1 = 0.0401	1.32 S/m and 1.31 S/m	–	–
278.1 K, Liquid, x1 = 0.0586	1.24 S/m	–	–
278.1 K, Liquid, x1 = 0.1197	–	1079 kg/m3	–
278.1 K, Liquid, x1 = 0.1402	–	1080.9 kg/m3	–
278.1 K, Liquid, x1 = 0.3555	–	1099.7 kg/m3 and 1099.8 kg/m3	–
278.1 K, Liquid, x1 = 0.4108	0.144 S/m	1101.5 kg/m3	394.6 mPa·s
278.1 K, Liquid, x1 = 0.4688	0.097 S/m	–	–
278.1 K, Liquid, x1 = 0.5001	0.089 S/m	–	–
278.6 K, Glass, x1 = 0.3555	–	–	1160 mPa·s
278.6 K, Liquid, x1 = 0.3555	–	1099.4 kg/m3	–
279.1 K, Glass, x1 = 0.3555	0.198 S/m	–	633.2 mPa·s
279.1 K, Liquid, x1 = 0.0803	1.1 S/m	–	–
279.1 K, Liquid, x1 = 0.1197	0.866 S/m	–	–
279.1 K, Liquid, x1 = 0.3555	–	1098.8 kg/m3	–
280.1 K, Glass, x1 = 0.1402	0.788 S/m	–	–
280.1 K, Liquid, x1 = 0.3555	0.206 S/m and 0.205 S/m	1098.3 kg/m3	307.6 mPa·s
280.1 K, Liquid, x1 = 0.4688	0.109 S/m	–	–
280.6 K, Liquid, x1 = 0.3555	–	1097.9 kg/m3	297.5 mPa·s
281.1 K, Glass, x1 = 0.1402	0.815 S/m and 0.816 S/m	–	–
281.1 K, Glass, x1 = 0.1605	0.737 S/m	–	–
281.1 K, Liquid, x1 = 0.0803	1.22 S/m	–	–
281.1 K, Liquid, x1 = 0.1197	0.927 S/m	–	–
281.1 K, Liquid, x1 = 0.3555	0.215 S/m and 0.214 S/m	1097.6 kg/m3	287.4 mPa·s
281.1 K, Liquid, x1 = 0.4108	0.168 S/m	–	–
282.1 K, Glass, x1 = 0.1402	0.848 S/m and 0.847 S/m	–	–
282.1 K, Glass, x1 = 0.1605	0.766 S/m	–	–
282.1 K, Glass, x1 = 0.3076	–	–	12190 mPa·s
282.1 K, Liquid, x1 = 0.3076	–	1094.6 kg/m3	–
282.1 K, Liquid, x1 = 0.3555	–	1096.9 kg/m3	268.8 mPa·s
282.6 K, Glass, x1 = 0.3076	–	–	7608 mPa·s
282.6 K, Liquid, x1 = 0.3076	–	1094.3 kg/m3	–
283.1 K, Glass, x1 = 0.1402	0.873 S/m and 0.874 S/m	–	11410 mPa·s
283.1 K, Glass, x1 = 0.1605	0.793 S/m and 0.791 S/m	–	–
283.1 K, Glass, x1 = 0.2119	0.566 S/m and 0.563 S/m	–	–
283.1 K, Glass, x1 = 0.2632	0.393 S/m	–	–
283.1 K, Glass, x1 = 0.3076	–	–	2873 mPa·s
283.1 K, Liquid, x1 = 0.0401	1.48 S/m	–	–
283.1 K, Liquid, x1 = 0.0586	1.46 S/m and 1.45 S/m	–	–
283.1 K, Liquid, x1 = 0.0803	1.29 S/m	–	–
283.1 K, Liquid, x1 = 0.1197	0.987 S/m	1075.7 kg/m3	105.5 mPa·s
283.1 K, Liquid, x1 = 0.1402	–	1078.9 kg/m3	–
283.1 K, Liquid, x1 = 0.3076	–	1094.1 kg/m3	–
283.1 K, Liquid, x1 = 0.3555	0.234 S/m and 0.236 S/m	1096.1 kg/m3 and 1096.2 kg/m3	251.8 mPa·s and 251.7 mPa·s
283.1 K, Liquid, x1 = 0.4108	0.189 S/m	1098 kg/m3	282.2 mPa·s
283.1 K, Liquid, x1 = 0.4688	0.128 S/m and 0.124 S/m	–	–
283.1 K, Liquid, x1 = 0.5001	0.117 S/m	–	–
283.6 K, Glass, x1 = 0.3076	–	–	1129 mPa·s
283.6 K, Liquid, x1 = 0.3076	–	1093.8 kg/m3	–
284.1 K, Glass, x1 = 0.1605	0.819 S/m	–	–
284.1 K, Glass, x1 = 0.2632	0.409 S/m	–	–
284.1 K, Glass, x1 = 0.3076	0.335 S/m	–	560.6 mPa·s
284.1 K, Liquid, x1 = 0.1402	0.908 S/m and 0.907 S/m	–	–
284.1 K, Liquid, x1 = 0.3076	–	1093.6 kg/m3	–
285.1 K, Glass, x1 = 0.1402	–	–	6220 mPa·s
285.1 K, Glass, x1 = 0.1605	0.847 S/m and 0.848 S/m	–	–
285.1 K, Glass, x1 = 0.2632	0.431 S/m	–	–
285.1 K, Glass, x1 = 0.3076	0.349 S/m	–	–
285.1 K, Liquid, x1 = 0.0803	1.37 S/m	–	–
285.1 K, Liquid, x1 = 0.1197	1.06 S/m	–	–
285.1 K, Liquid, x1 = 0.1402	0.934 S/m and 0.936 S/m	1077.9 kg/m3	–
285.1 K, Liquid, x1 = 0.3076	–	1092.7 kg/m3	191.9 mPa·s
285.1 K, Liquid, x1 = 0.3555	0.258 S/m and 0.257 S/m	–	–
285.1 K, Liquid, x1 = 0.4108	0.209 S/m	–	–
285.1 K, Liquid, x1 = 0.4688	0.142 S/m	–	–
285.6 K, Liquid, x1 = 0.3076	–	1092.4 kg/m3	186 mPa·s
286.1 K, Glass, x1 = 0.1402	–	–	4375 mPa·s
286.1 K, Glass, x1 = 0.1605	0.875 S/m and 0.876 S/m	–	–
286.1 K, Glass, x1 = 0.2632	0.449 S/m and 0.445 S/m	–	–
286.1 K, Glass, x1 = 0.3076	0.363 S/m and 0.362 S/m	–	–
286.1 K, Liquid, x1 = 0.1402	0.965 S/m and 0.967 S/m	1077.3 kg/m3	–
286.1 K, Liquid, x1 = 0.3076	–	1092 kg/m3	180.2 mPa·s
286.6 K, Glass, x1 = 0.2632	0.455 S/m	–	–
286.6 K, Liquid, x1 = 0.2632	–	1088.8 kg/m3	–
286.6 K, Liquid, x1 = 0.3076	–	1091.7 kg/m3	174.6 mPa·s
287.1 K, Glass, x1 = 0.1402	–	–	2587 mPa·s
287.1 K, Glass, x1 = 0.1605	0.904 S/m	–	–
287.1 K, Glass, x1 = 0.1766	0.817 S/m	–	–
287.1 K, Glass, x1 = 0.2632	0.463 S/m	–	14710 mPa·s
287.1 K, Liquid, x1 = 0.1197	1.13 S/m	–	–
287.1 K, Liquid, x1 = 0.1402	0.996 S/m and 0.997 S/m	–	–
287.1 K, Liquid, x1 = 0.1605	0.906 S/m	–	–
